Assay results reported in patent US12540943B2, “Use of Acyl coenzyme A: cholesterol acyltransferase-1 in diagnosis and treatment of liver cancer” (ACADEMY OF MILITARY MEDICAL SCIENCES, priority 2018, dated 2026).

Tests used:
Huh7 = experiment: CCK8 experiment, proliferation of liver cancer cell line; type: cell-based, human; settings: for effect on proliferation: Huh7, CCK8 growth curves 0-72 hours, inhibitor 10 μM, 20 μM
Experimental: (§1) 7. CCK8 experiment 1) On the first day, after routine trypsinization and counting of cells in a 60 mm culture dish, 5000 cells/well, inoculated 4 96-well plates. 2) On the second day, after about 24 hours of culture, the cell growth was in the logarithmic phase. […] Took a 96-well plate and added 10% CCK8, 100 μl/well, and measured the OD value at 0 hour at 450 nm wavelength after 1 hour. Cell-free well was a blank background. 3) On the third day, added 10% CCK8 to a 96-well plate, and measured the OD value at 24 hours at 450 nm wavelength after 1 hour. 4) On the fourth day, added 10% CCK8 to a 96-well plate, and measured the OD value at 48 hours at 450 nm wavelength after 1 hour. 5) On the fifth day, added 10% CCK8 to a 96-well plate, and measured the OD value at 72 hours at 450 nm wavelength after 1 hour. 6) Summarized the OD values at all time points and drew growth curves. 8. Cell migration experiment

MHCC97H = experiment: as above; type: cell-based, human; settings: for effect on proliferation: CCK8 growth curves 0-72 hours, inhibitor 10 μM, 20 μM
Experimental: as §1

PLC/PRF/5 [1] = experiment: as above; type: cell-based, human
Experimental: (§2) 1) On the first day, after routine trypsinization and counting of cells in a 60 mm culture dish, 5000 cells/well, inoculated 4 96-well plates.
(§3) 2) On the second day, after about 24 hours of culture, the cell growth was in the logarithmic phase. Replaced with a new culture medium added with different concentrations of SOAT1 inhibitor, 100 μl/well, set 10 μM, 20 μM concentration group and control group respectively, the control group was 1% DMSO, each group had 3 repetitive wells. Took a 96-well plate and added 10% CCK8, 100 μl/well, and measured the OD value at 0 hour at 450 nm wavelength after 1 hour. Cell-free well was a blank background.
(§4) 3) On the third day, added 10% CCK8 to a 96-well plate, and measured the OD value at 24 hours at 450 nm wavelength after 1 hour.
(§5) 4) On the fourth day, added 10% CCK8 to a 96-well plate, and measured the OD value at 48 hours at 450 nm wavelength after 1 hour.
(§6) 5) On the fifth day, added 10% CCK8 to a 96-well plate, and measured the OD value at 72 hours at 450 nm wavelength after 1 hour.
(§7) 6) Summarized the OD values at all time points and drew growth curves. 8. Cell migration experiment

HepG2 [2] = experiment: as above; type: cell-based, human; settings: CCK8 growth curves 0-72 hours, inhibitor 10 μM, 20 μM or SOAT1 knockdown
[3] = test system: Cervical cancer Hela cell line; experiment: Proliferation of other tumor cell lines; type: cell-based, human; settings: FIG. 7
Experimental: as §2, §3, §4, §5, §6, §7

[4] = test system: breast cancer MCF7 cell line; experiment: Proliferation of other tumor cell lines; type: cell-based, human; settings: MCF7, FIG. 7
Experimental: as §2, §3, §4, §5, §6, §7

[5] = test system: colon cancer HCT116 cell line; experiment: Proliferation of other tumor cell lines; type: cell-based, human; settings: HCT116, FIG. 7
Experimental: as §2, §3, §4, §5, §6, §7

[6] = test system: esophageal cancer ECA109 cell line; experiment: Proliferation of other tumor cell lines; type: cell-based, human; settings: ECA109, FIG. 7
Experimental: as §2, §3, §4, §5, §6, §7

[7] = test system: leukemia Jurkat cell line; experiment: Proliferation of other tumor cell lines; type: cell-based, human; settings: FIG. 7
Experimental: as §2, §3, §4, §5, §6, §7

[8] = test system: non-small cell lung cancer A549 cell line; experiment: Proliferation of other tumor cell lines; type: cell-based, human; settings: A549, FIG. 7
Experimental: as §2, §3, §4, §5, §6, §7

HepG2 [9] = experiment: Cell migration experiment (transwell); type: cell-based, human; settings: 20-24 hours, Avasimibe concentration 10 μM or SOAT1 knockdown
Experimental: as §7
(§8) (1) Starving cells: Withdrew the whole medium, washed twice with PBS, and replaced with serum-free DMEM.
(§9) (2) Added 2.5% serum of DMEM to the transwell lower chamber, 600 ul/well. Equilibrated overnight in a 37° C. incubator. Thetranswell chamber was 3422 of
(§10) (3) Added trypsin to digest the hungry cells from yesterday (about 30-50 seconds at room temperature), quickly and carefully sucked up the trypsin, added 1 ml of complete medium, and collected in a 1.5 ml centrifuge tube;
(§11) (4) Centrifuged at 800 rpm for 4 min; discarded the supernatant, added serum-free DMEM, and washed once; centrifuged again for 4 min at 800 rpm; discarded the supernatant and added 0.5% FBS in DMEM;
(§12) 100 μl/well was added to the tanswell upper chamber. The third day (20-24 hours later): (6) Discarded the culture medium; (7) Fixed with anhydrous methanol for 20 minutes; (8) Air-dried the film; (9) Pinched the cotton of the cotton swab to flat and rotated it to clean the upper chamber cells. Wrapped the tweezers with a cotton ball to gently wipe off the edge cells. (10) 0.5% crystal violet staining; (11) Rinsed slowly with clean water; (12) Observed and took pictures under an inverted microscope. 9. Western blot detection was done by conventional methods. 10. Statistical analysis

PLC/PRF/5 [10] = experiment: Cell migration experiment (transwell); type: cell-based, human; settings: 20-24 hours, Avasimibe concentration 10 μM or SOAT1 knockdown
Experimental: as §7, §8, §9, §10, §11, §12

[11] = test system: transcription factor SREBF2; experiment: Expression of cholesterol regulation and tumor invasion molecules (FIG. 8); type: cell-based
[12] = test system: extracellular uptake receptor (LDLR); experiment: as above; type: cell-based
ITGAV = experiment: as above; type: cell-based
ITGB4 = experiment: as above; type: cell-based
TGFBR1 = experiment: as above; type: cell-based

CSc1cc(C)nc(SC)c1NC(=O)CN1CCN(CCSc2nc3ccccc3[nH]2)CC1.Cl [K604, 2-[4-[2-(benzimidazol-2-ylthio)ethyl]piperazin-lyl]-N-[2,4-bis(methylthio)-6-methyl-3-pyridyl]acetamide]
effect on proliferation (Huh7): significantly inhibited the proliferation
effect on proliferation (MHCC97H): significantly inhibited the proliferation

Avasimibe
IC50 (PLC/PRF/5 [1]; PLC/PRF/5, FIG. 5A): 6.9 µM
effect on proliferation (PLC/PRF/5 [1]; PLC/PRF/5, CCK8 growth curves 0-72 hours, inhibitor 10 μM, 20 μM or SOAT1 knockdown): significantly inhibit the proliferation
effect on proliferation (HepG2 [2]): significantly inhibit the proliferation
IC50 (Huh7; Huh7, FIG. 5A): 6.8 µM
effect on proliferation (Huh7): significantly inhibit the proliferation
effect on proliferation (MHCC97H): significantly inhibit the proliferation
IC50 (MHCC97H; FIG. 5A): 25.2 µM
effect on proliferation [3]: significantly inhibited the proliferation
effect on proliferation [4]: significantly inhibited the proliferation
effect on proliferation [5]: significantly inhibited the proliferation
effect on proliferation [6]: significantly inhibited the proliferation
effect on proliferation [7]: significantly inhibited the proliferation
effect on proliferation [8]: significantly inhibited the proliferation
effect on migration (HepG2 [9]): significantly reduce the migration
effect on migration (PLC/PRF/5 [10]): significantly reduce the migration
effect on expression of SREBF2 [11]: significantly inhibit the expression
effect on expression of LDLR [12]: significantly inhibit the expression
effect on expression of ITGAV (ITGAV): significantly inhibit the expression
effect on expression of ITGB4 (ITGB4): significantly inhibit the expression
effect on expression of TGFBR1 (TGFBR1): significantly inhibit the expression
